Laboratory results taken from the METLIN SMRT retention time set (Domingo-Almenara et al. 2019).

Assay: gradient 5% acetonitrile 3 min, to 50% in 2 min, to 85% in 15 min, held 3 min, 100 µL/min
Details: column: Zorbax Extend-C18 2.1 x 50 mm; eluents: water / acetonitrile, 0.1% formic acid
How it was run: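 Each retention time is based on an adduct peak selected computationally and verified by manual inspection. Measurements used HPLC–quadrupole time-of-flight mass spectrometry in positive and negative ionization mode on mixtures of ~100 pure standards. Chromatography ran on a Zorbax Extend-C18 column (2.1 × 50 mm, 1.8 μm) at 100 μL/min with water and acetonitrile, each containing 0.1% formic acid, and dead and dwell volumes of 40 μL and 900 μL.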

Structure (SMILES)	RP-LC retention time [s]
CCCc1ccc(-c2cc(C(=O)N3CCN(c4ccccn4)CC3)c3ccccc3n2)cc1	857
CC(C)(NC(=O)c1ccoc1)c1nc2c(c(C(N)=O)n1)OCO2	818
O=C(NCC(=O)N1CCN(c2ccccc2Cl)CC1)c1c[nH]c2ccccc12	785
COCC(=O)N1C[C@@H]2CCCN3CCC[C@@H]([C@H]23)[C@H]1CCCC(=O)NCC1CC1	566
CC(C)(C)N(CC(=O)N(Cc1ccco1)CC1CCCO1)C(=O)Cc1ccccc1 (configuration not stated)	907
COc1ccc(N2CCN(CCCNC(=O)NC3COc4ccc(OC)cc4C3)CC2)cc1 (configuration not stated)	687
O=C(c1ccc(Br)cc1)N1CCC(n2c(-c3ccoc3)nc3cccnc32)C1 (configuration not stated)	783
Cc1cc(CNC(=O)C2(c3ccc(F)cc3)CC2)c(C)o1	900
Cc1ccc(N2C(=O)C3N=NN(Cc4nc(-c5ccc(Cl)cc5)no4)C3C2=O)cc1 (configuration not stated)	1070
CCC(=O)N1CCc2c(sc3ncnc(N4CCc5ccccc54)c23)C1	734
COC(=O)c1c(-c2ccc(F)cc2)noc1NCc1ccccn1	771
O=C(CSC1=Nc2ccccc2N=C(c2ccc(F)cc2)C1)NC1CCCC1	1130
O=C(NCCc1cnc[nH]1)c1nc(Nc2ccc(F)cc2)c2ccccc2n1	589
CC(C(=O)NCCc1ccccc1)n1cnc2nc(N3CCCCC3)ncc2c1=O (configuration not stated)	810
Fc1cccc(-c2nc(-c3ccnc(N4CCOCC4)c3)no2)c1	967
COc1cccc(OCC(=O)Nc2ccc3c(c2)N(C(=O)c2ccco2)CCC3)c1	877
CCCN1C(=O)Cc2ccccc2C1C(=O)NCC1CCCCC1 (configuration not stated)	881
CN1C(=O)c2cc(C(=O)Nc3ccc(Cl)cc3)nn2CC1(C)C(=O)NC1CCCCC1 (configuration not stated)	898
O=S(=O)(c1cccc(C(F)(F)F)c1)N1CCc2nc(-c3ccccc3)ncc2C1	1140
O=C(CCC1CCN(c2cc(NC3CC3)ncn2)CC1)NCc1ccc(F)cc1F	684
Fc1ccc(-c2nc(-c3cccc(-c4ccn[nH]4)c3)no2)c(F)c1	992
COCCNC(=O)C1CCN(c2nc3ccc(-c4ccc(F)cc4)nc3s2)CC1	835
CCN(Cc1ccccc1)Cc1cc(=O)n2cc(Cl)ccc2n1	616
CCN1CCN(C(=O)C2CCN(S(=O)(=O)c3ccc4c(c3)NC(=O)CO4)CC2)CC1	664
CCS(=O)(=O)N1CCC2(CC1)CN(Cc1ccc(OC)cc1)C2=O	745
CN1CCC2(CCN3CCc4c(oc5ccccc45)C3C2)N(C)C1=O (configuration not stated)	615

Structure (SMILES)	RP-LC retention time [s]
CN1CCN(c2cc(-c3nc(-c4ccc(Cl)cc4)no3)c3ccccc3n2)CC1	881
COc1ccc(S(=O)(=O)N2CCCC(C(=O)Nc3cc(Cl)ccc3OC)C2)cc1Cl (configuration not stated)	1110
O=C(NCCCN1CCOCC1)c1cc(-c2ccccn2)nc2ccccc12	592
CCOc1ccc(C2Cn3nnc(-c4nc(-c5ccc(F)c(F)c5)no4)c3CO2)cc1 (configuration not stated)	1250
COc1ccc(Cl)cc1NC(=O)N1CCCC1c1nc(-c2ccccc2)no1 (configuration not stated)	1140
CCOc1ccc(N(C)S(=O)(=O)c2ccsc2C(=O)NC(C)CCc2ccccc2)cc1 (configuration not stated)	1260
O=C(Nc1ccc(F)cc1Cl)c1c(O)c2cccnc2n(-c2ccc(F)cc2)c1=O	1300
O=C(Cc1cccs1)N1CCN(c2cnn3cnnc3c2)CC1	585
CN(C(=O)Cn1cnc2c(-c3ccccc3)csc2c1=O)c1ccc(F)cc1	938
CC(C)(C)c1ccc2c(c1)N(S(=O)(=O)c1ccccc1)CC(C(=O)NC1CC1)O2 (configuration not stated)	1080
O=c1c2cc3c(cc2nc(SCc2nc(-c4cccc(F)c4)no2)n1Cc1ccccc1)OCO3	1250
Cc1cc2c(cc1S(=O)(=O)N1CCC(C(=O)N3CCCCC3)CC1)OCC(=O)N2	734
COc1ccc(Cl)cc1S(=O)(=O)N1CCC2(CC1)c1nccn1CCN2C	646
O=C(CN1C[C@H]2C[C@H](C1)[C@H]1CCCC(=O)N1C2)NCC1CC1	563
COc1ccc(C(=O)N2CCCn3nc(-c4cccs4)cc3C2)c(OC)c1	798
Cc1noc(-c2nc(-c3ccc(N(C)C)cc3)no2)n1	1030
O=C(NC1(c2nc(-c3cccnc3)no2)CCCCC1)c1ccoc1	802
CCCS(=O)(=O)N1CCC(C2CCN(C(=O)NC)CC2)C1 (configuration not stated)	659
O=C(c1cccs1)N1CCN(c2cnn3c(C4CC4)nnc3c2)CC1	625
Cc1cccc(C)c1NC(=O)N1CCC(OC2CCN(S(C)(=O)=O)CC2)CC1	718
COc1ccc(NC(=O)C2CCN(S(=O)(=O)c3cc(C(=O)N4CCOCC4)cs3)CC2)cc1	721
CN1CCN(C(CNS(=O)(=O)c2cc(F)ccc2F)c2cccn2C)CC1 (configuration not stated)	580
O=C(NCc1csc(C2CCCN(C(=O)C3CCCCC3)C2)n1)C1CCC1 (configuration not stated)	774
Cc1noc(C)c1-c1ccc(S(=O)(=O)Nc2ccc(S(N)(=O)=O)cc2)cc1	756
CC1(C(=O)NC2CCCC2)Cn2cnc(C(=O)NCc3ccc(F)cc3)c2C(=O)N1C1CC1 (configuration not stated)	759
Cc1cccc(Sc2nccnc2N2CCC(C(=O)NC3CC3)CC2)c1	886

Continued, values first:

RP-LC retention time [s]	Structure (SMILES)
776	CCn1c(=O)c2ccn(CC(=O)N3CCCc4ccccc43)c2n(CC)c1=O
1050	CCOC(=O)Cn1c(=O)c2c(nc3n2CC(C)CN3c2cc(C)cc(C)c2)n(C)c1=O (configuration not stated)
578	COc1ccc(CC(=O)N2CCN(c3cc(C)n4c(C)nnc4n3)CC2)cc1OC
748	CCOc1ccc(C(=O)NC2CCN(c3cc(-c4ccccc4)[nH]n3)C2)cc1OCC (configuration not stated)
756	COc1ccc(NC(=O)C2CCN(c3cnc4nc(C)c(C)nc4c3)CC2)cc1Cl
950	CCCC(=O)Nc1nc2ccc(CCC(=O)Nc3cccc(C(=O)OCC)c3)cc2s1
806	COc1cccc(CNC(=O)Cn2c(=O)cc(-c3nc(C)no3)c3ccccc32)c1
1060	CCn1cc(-c2nc(C(=O)NCc3ccccc3C)cs2)c2cccnc21
1270	Cc1ccc(C)c(S(=O)(=O)N2CCCC2c2nc(-c3ccc(Cl)cc3)no2)c1 (configuration not stated)
673	COc1cccc(NC(=O)Nc2ccc3nc4n(c(=O)c3c2)CCC4)c1
666	COc1nn(C)cc1C(=O)Nc1nnc(-c2cc(C)oc2C)o1
679	CCN(CC)C(=O)c1ccc(-c2nc3cc(NS(=O)(=O)c4ccccc4F)ccc3n2C)cc1
732	CCOc1ccc(NC(=O)C2CCCN(c3ncnc4c3nc3n4CCCCC3)C2)cc1 (configuration not stated)
880	Cc1c2cnn(CC(=O)NCc3ccc4c(c3)OCO4)c(=O)c2c(C)n1Cc1cccc(Cl)c1
678	Cn1cc(C(=O)NC2CCCCC2)c2nn(-c3ccccc3)c(=O)c-2c1
674	CCOC(=O)c1c(S(=O)(=O)N2CCC(C(=O)N3CCOCC3)CC2)c(C)n(C)c1C
775	CCOc1ccccc1NC(=O)Cn1ncc2c(c1=O)N(C1CC1)C(=O)CS2
739	Cc1cc(C)c2c(N)c(C(=O)c3ccccn3)sc2n1

RP-LC retention time [s]	Structure (SMILES)
770	CCCN1C(=O)C2CCC(=O)N2c2ccc(C(=O)Nc3ccc4c(c3)OCCO4)cc21 (configuration not stated)
672	O=C(Cn1c(=O)c(CCC(=O)NC2CCCC2)nc2ccccc21)Nc1ccc(F)c(Cl)c1
796	Cc1oc(-c2[nH]ncc2C(=O)N2CCCC2)cc1S(=O)(=O)NCc1cccc(Cl)c1
651	Cc1ccc2nc(Nc3ncc4c(n3)CC(C)CC4=O)nc(C)c2c1 (configuration not stated)
957	COc1ccc(CNC(=O)Cn2nc3c(Oc4ccccc4C)nccn3c2=O)cc1
873	CCN(CC)C(=O)N1CC(Oc2cccc(-c3nc(C)no3)c2)C1
1010	CCc1nc(-c2csc(S(=O)(=O)N3CCCC(C(=O)Nc4c(C)cccc4C)C3)c2)no1 (configuration not stated)
712	CCOc1ccc(CNC(=O)C2CCN(C(=O)C3Sc4ccccc4NC3=O)CC2)cc1OC (configuration not stated)
822	Cc1ccc(-n2c(=O)c3c(cc(C)n3C)n(CC(=O)Nc3cccc(C#N)c3)c2=O)cc1
771	O=C(Nc1nnc(C2CC(=O)N(c3ccc(F)cc3)C2)o1)c1ccc(Cl)cc1 (configuration not stated)
842	Cc1ccc(N2CCC(NC(=O)c3ccc(C)s3)C2=O)cc1 (configuration not stated)
698	COc1cccc(CNC(=O)Cn2c(=O)c3cc(C)nn3c3ncccc32)c1
1130	CCOC(=O)c1ccccc1NC(=O)Cn1c(=O)c(CCC(=O)NC2CCCC2)nc2ccccc21
622	Cc1nn(C(C)C(=O)NCCC(C)C)c(=O)c2nn(-c3ccccc3)c(C)c12 (configuration not stated)
741	CCn1nc(C)c(-c2cc(C(=O)NCC34CCC=C3N(C)C(=O)CC4)no2)c1C (configuration not stated)
962	O=C(Nc1nccn(-c2ccc3c(c2)CCC3)c1=O)c1ccc(Cl)cc1
644	Cc1noc(C)c1Cn1cccc(S(=O)(=O)N2CCCC2)c1=O
